Test results from PubChem BioAssay AID652194 (Johns Hopkins Ion Channel Center, 2013).
The source made the active and inactive calls.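 The calls were made as follows: active = hERG flux cut by over 30% at some tested dose, with a fitted dose response curve; inactive = no hERG inhibition at any dose or no curve.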

Target: Voltage-gated inwardly rectifying potassium channel KCNH2 (Homo sapiens) (UniProt Q12809)
Assay: off-target hERG block by TASK1 inhibitor candidates – FluxOR thallium flux, concentration-response, CHO cells, selectivity assay for TASK1 inhibitor project, SAR follow-up (AID 652194)
Conditions: hERG-expressing cells, FluxOR thallium flux fluorescence; for flux ratio, lower = inhibition: at 30 µM (top of the series)

Voltage-gated inwardly rectifying potassium channel KCNH2 (Homo sapiens), sequence (Q12809 whole entry, looked up): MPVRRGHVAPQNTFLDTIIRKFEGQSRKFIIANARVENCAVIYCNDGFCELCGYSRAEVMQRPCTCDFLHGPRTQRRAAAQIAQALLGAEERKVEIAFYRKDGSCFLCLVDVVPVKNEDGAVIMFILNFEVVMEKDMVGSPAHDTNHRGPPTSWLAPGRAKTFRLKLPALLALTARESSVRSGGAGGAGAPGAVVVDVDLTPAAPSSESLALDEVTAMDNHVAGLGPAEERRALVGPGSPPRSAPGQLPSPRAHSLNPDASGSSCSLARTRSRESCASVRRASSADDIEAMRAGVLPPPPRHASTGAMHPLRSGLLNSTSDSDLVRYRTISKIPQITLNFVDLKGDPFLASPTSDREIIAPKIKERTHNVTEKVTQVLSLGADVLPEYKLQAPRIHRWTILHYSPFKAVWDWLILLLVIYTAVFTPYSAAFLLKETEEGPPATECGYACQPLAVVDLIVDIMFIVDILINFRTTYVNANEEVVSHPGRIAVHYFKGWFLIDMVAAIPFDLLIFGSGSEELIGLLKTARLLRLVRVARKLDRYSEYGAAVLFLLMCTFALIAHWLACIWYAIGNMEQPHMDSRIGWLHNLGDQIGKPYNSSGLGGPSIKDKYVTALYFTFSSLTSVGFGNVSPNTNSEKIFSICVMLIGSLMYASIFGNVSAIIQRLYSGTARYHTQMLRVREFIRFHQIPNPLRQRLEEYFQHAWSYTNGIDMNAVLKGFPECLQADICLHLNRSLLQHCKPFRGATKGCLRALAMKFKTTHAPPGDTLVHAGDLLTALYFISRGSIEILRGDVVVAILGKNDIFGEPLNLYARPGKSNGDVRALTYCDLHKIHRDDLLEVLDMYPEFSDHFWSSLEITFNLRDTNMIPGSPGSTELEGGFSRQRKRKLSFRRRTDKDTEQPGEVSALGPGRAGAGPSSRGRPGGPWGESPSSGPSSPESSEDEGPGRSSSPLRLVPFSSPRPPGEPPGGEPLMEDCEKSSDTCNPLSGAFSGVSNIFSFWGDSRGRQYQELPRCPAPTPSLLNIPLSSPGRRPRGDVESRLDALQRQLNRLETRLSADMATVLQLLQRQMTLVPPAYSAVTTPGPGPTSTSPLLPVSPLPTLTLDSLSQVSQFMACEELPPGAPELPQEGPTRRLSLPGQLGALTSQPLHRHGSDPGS

SMILES | flux ratio, lower = inhibition | IC50
CCOc1ccccc1NC(=O)c1cccc(NC(=O)c2ccc(OC)cc2)c1 | inactive | –
O=C(Nc1ccccc1Cl)c1cccc(NC(=O)C2CCCC2)c1 | inactive | –
Cc1cccc(C(=O)Nc2cccc(NC(=O)c3cccc(C)c3)c2)c1 | – | 12.4 µM
Cc1cccc(C(=O)Nc2cccc(NC(=O)c3ccco3)c2)c1 | inactive | –
CCOc1ccccc1NC(=O)c1cccc(NC(=O)c2ccc(C(F)(F)F)cc2)c1 | inactive | –
CCOc1ccccc1C(=O)Nc1cccc(NC(=O)c2ccccc2OC)c1 | inactive | –
O=C(Nc1cccc(NC(=O)c2cccc(C(F)(F)F)c2)c1)c1ccccc1 | inactive | –
CCOc1ccccc1C(=O)Nc1cccc(NC(=O)C2CCCC2)c1 | inactive | –
COc1ccccc1C(=O)Nc1cccc(NC(=O)c2ccccc2C)c1 | inactive | –
Cc1cccc(C(=O)Nc2cccc(NC(=O)c3ccccc3Cl)c2)c1 | inactive | –
CCOc1ccccc1NC(=O)c1cccc(NC(=O)c2cccc(Cl)c2)c1 | inactive | –
COc1ccccc1NC(=O)c1cccc(NC(=O)c2ccccc2OC)c1 | inactive | –
COc1ccccc1C(=O)Nc1cccc(NC(=O)c2ccccc2OC)c1 | inactive | –
CCOc1ccccc1NC(=O)c1cccc(NC(=O)c2ccccc2C(F)(F)F)c1 | inactive | –
CCOc1ccccc1NC(=O)c1cccc(NC(=O)CC2CCCC2)c1 | inactive | –
Cc1cccc(C(=O)Nc2cccc(NC(=O)c3ccccc3OCC(C)C)c2)c1 | inactive | –
Cc1cccc(NC(=O)c2ccccc2NC(=O)c2ccccc2)c1 | inactive | –
Cc1cccc(C(=O)Nc2cccc(NC(=O)c3ccc(Cl)cc3)c2)c1 | inactive | –
CCOc1ccccc1NC(=O)c1cccc(NC(=O)c2ccc(C)cc2)c1 | inactive | –
COc1ccccc1C(=O)Nc1cccc(NC(=O)c2ccccc2C(C)C)c1 | inactive | –
CCOc1ccccc1NC(=O)c1cccc(NC(=O)c2ccccc2Cl)c1 | inactive | –

SMILES | flux ratio, lower = inhibition | IC50
COc1ccccc1NC(=O)c1cccc(NC(=O)c2ccccc2C(F)(F)F)c1 | inactive | –
COc1cnccc1C(=O)Nc1cccc(NC(=O)c2cccc(C)c2)c1 | inactive | –
O=C(Nc1cccc(NC(=O)c2cccs2)c1)c1ccccc1 | inactive | –
CCOc1ccc(NC(=O)c2cccc(NC(=O)C3CCCC3)c2)cc1 | inactive | –
Cc1cccc(C(=O)Nc2ccccc2NC(=O)c2ccccc2)c1 | inactive | –
Cc1cccc(C(=O)Nc2ccccc2C(=O)Nc2ccccc2)c1 | inactive | –
Cc1cccc(C(=O)Nc2cccc(NC(=O)c3ccc(C(F)(F)F)cc3)c2)c1 | inactive | –
Cc1cccc(NC(=O)c2cccc(NC(=O)c3ccccc3)c2)c1 | inactive | –
COc1ccccc1C(=O)Nc1cccc(NC(=O)c2ccccc2OC(F)(F)F)c1 | inactive | –
CCOc1ccccc1NC(=O)c1cccc(NC(=O)c2cccc(C)c2)c1 | inactive | –
CC(C)Oc1ccccc1C(=O)Nc1cccc(NC(=O)c2ccccc2OC(F)(F)F)c1 | inactive | –
CCOc1ccccc1NC(=O)c1cccc(NC(=O)c2cccc(OC)c2)c1 | inactive | –
COc1ccccc1NC(=O)c1cccc(NC(=O)C2CCCCC2)c1 | inactive | –
O=C(Nc1cccc(NC(=O)c2ccccc2)c1)c1ccccc1 | inactive | –
Cc1ccccc1C(=O)Nc1cccc(NC(=O)c2ccccc2)c1 | inactive | –
Cc1cccc(C(=O)Nc2cccc(NC(=O)c3ccccc3C(F)(F)F)c2)c1 | inactive | –
Cc1cccc(C(=O)Nc2cccc(NC(=O)c3ccccc3C(C)C)c2)c1 | inactive | –
COc1ccccc1NC(=O)c1cccc(NC(=O)c2ccccc2)c1 | inactive | –
CCOc1ccccc1NC(=O)c1cccc(NC(=O)c2ccccc2OC)c1 | inactive | –
O=C(Nc1cccc(NC(=O)c2ccccc2Cl)c1)c1ccccc1 | inactive | –
Cc1cccc(C(=O)Nc2cccc(NC(=O)c3ccccc3)c2)c1 | inactive | –

SMILES | flux ratio, lower = inhibition | IC50
COc1ccccc1C(=O)Nc1cccc(NC(=O)c2ccccc2)c1 | inactive | –
CCOc1ccccc1C(=O)Nc1cccc(NC(=O)c2ccccc2C(F)(F)F)c1 | inactive | –
CCOc1ccccc1NC(=O)c1cccc(NC(=O)c2ccccc2OC(F)(F)F)c1 | inactive | –
O=C(Nc1cccc(NC(=O)c2ccccc2C(F)(F)F)c1)c1ccccc1 | inactive | –
O=C(Nc1cccc(NC(=O)c2ccoc2)c1)c1ccccc1 | inactive | –
O=C(Nc1cccc(NC(=O)c2ccc(F)cc2)c1)c1ccccc1 | inactive | –
CCOc1ccccc1NC(=O)c1cccc(NC(=O)C2CC2)c1 | inactive | –
CCOc1ccccc1NC(=O)c1cccc(NC(=O)C2CCCCC2)c1 | inactive | –
COc1ccc(C(=O)Nc2cccc(NC(=O)c3ccccc3)c2)cc1 | inactive | –
COc1ccccc1C(=O)Nc1cccc(NC(=O)c2cccc(C)c2)c1 | inactive | –
Cc1cccc(C(=O)Nc2cccc(NC(=O)c3ccc(N(C)C)cc3)c2)c1 | inactive | –
CCOc1ccccc1NC(=O)c1cccc(NC(=O)C2CCOC2)c1 (stereo not drawn) | inactive | –
Cc1ccc(C(=O)Nc2cccc(NC(=O)c3ccccc3)c2)cc1 | inactive | –
CCOc1ccccc1NC(=O)c1cccc(NC(=O)C2CCCC2)c1 | inactive | –
O=C(Nc1cccc(NC(=O)c2ccncc2)c1)c1ccccc1 | inactive | –
O=C(Nc1cccc(NC(=O)c2ccc(C(F)(F)F)cc2)c1)c1ccccc1 | inactive | –
COc1cccc(C(=O)Nc2cccc(NC(=O)c3cccc(C)c3)c2)c1 | inactive | –
CCOc1ccccc1NC(=O)c1cccc(NC(=O)C(C)(C)C)c1 | inactive | –
O=C(Nc1cccc(NC(=O)c2cccc(F)c2)c1)c1ccccc1 | inactive | –
COc1ccccc1C(=O)Nc1cccc(NC(=O)c2cccc3ccccc23)c1 | inactive | –
Cc1cccc(S(=O)(=O)Nc2cccc(NC(=O)c3ccccc3)c2)c1 | inactive | –
